Test results published in patent US7094781B2, “Sulfamides and their use as endothelin receptor antagonists” (Actelion Pharmaceuticals Ltd., priority 2000, dated 2006).
Where two headings read alike, the source gives them in different places.

How the values were obtained:
[1] = target: T1, human recombinant ETA receptor (Homo sapiens, UniProt P25101); assay: Inhibition of [125I]ET-1 binding to membranes from CHO cells carrying human ETA receptors
T1 construct: expressed in transfected cells; host or cells: CHO cells (microsomal membranes)
T1 sequence (P25101 21-427): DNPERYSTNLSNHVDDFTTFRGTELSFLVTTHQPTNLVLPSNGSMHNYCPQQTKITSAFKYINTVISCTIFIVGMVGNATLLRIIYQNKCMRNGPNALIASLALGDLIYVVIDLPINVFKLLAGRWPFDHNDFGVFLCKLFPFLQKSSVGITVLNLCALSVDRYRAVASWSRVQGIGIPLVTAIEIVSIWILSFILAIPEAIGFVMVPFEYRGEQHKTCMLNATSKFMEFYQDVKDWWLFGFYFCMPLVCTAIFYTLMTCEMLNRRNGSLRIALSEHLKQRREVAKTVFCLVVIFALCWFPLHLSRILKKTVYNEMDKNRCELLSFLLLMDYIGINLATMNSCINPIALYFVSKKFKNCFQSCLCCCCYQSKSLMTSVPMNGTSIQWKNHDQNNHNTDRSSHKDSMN

[2] = target: T2, human recombinant ETB receptor (Homo sapiens, UniProt P24530); assay: Inhibition of [125I]ET-1 binding to membranes from CHO cells carrying human ETB receptors
T2 construct: expressed in transfected cells; host or cells: CHO cells (microsomal membranes)
T2 sequence (P24530 27-442): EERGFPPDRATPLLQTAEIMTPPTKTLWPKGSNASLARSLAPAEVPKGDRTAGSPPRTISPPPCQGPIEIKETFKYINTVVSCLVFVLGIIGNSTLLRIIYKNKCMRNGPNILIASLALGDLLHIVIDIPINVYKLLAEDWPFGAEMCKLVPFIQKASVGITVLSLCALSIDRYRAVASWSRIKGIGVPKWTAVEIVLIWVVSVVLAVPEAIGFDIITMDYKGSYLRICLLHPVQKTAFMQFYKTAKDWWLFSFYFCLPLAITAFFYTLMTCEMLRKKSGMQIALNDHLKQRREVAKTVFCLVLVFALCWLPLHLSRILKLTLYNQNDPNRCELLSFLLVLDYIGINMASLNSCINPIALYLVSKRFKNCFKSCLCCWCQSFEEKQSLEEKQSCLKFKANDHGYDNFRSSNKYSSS

[3] = target: T3, ETA receptors (rat aortic rings) (Rattus norvegicus, UniProt P26684); assay: Inhibition of endothelin-1-induced contraction on isolated rat aortic rings
T3 construct: The thoracic aorta or trachea were excised, dissected and cut in 3–5 mm rings; from tissue; host or cells: thoracic aorta rings of adult Wistar rats, endothelium removed
T3 sequence (P26684 21-426): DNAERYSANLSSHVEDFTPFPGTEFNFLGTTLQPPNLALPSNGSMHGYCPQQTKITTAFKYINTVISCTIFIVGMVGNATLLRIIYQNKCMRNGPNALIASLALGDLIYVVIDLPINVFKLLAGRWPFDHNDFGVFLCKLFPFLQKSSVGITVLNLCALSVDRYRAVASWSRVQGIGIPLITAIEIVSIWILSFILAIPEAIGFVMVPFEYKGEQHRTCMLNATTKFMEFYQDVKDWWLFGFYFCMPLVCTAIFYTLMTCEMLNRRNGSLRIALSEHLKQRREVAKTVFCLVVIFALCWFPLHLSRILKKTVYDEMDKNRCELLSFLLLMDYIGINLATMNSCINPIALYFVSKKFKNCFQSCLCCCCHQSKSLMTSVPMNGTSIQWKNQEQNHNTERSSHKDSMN
Experimental: (§1) 2) Inhibition of Endothelin-induced Contractions on Isolated Rat Aortic Rings (ETA Receptors) and Rat Tracheal Rings (ETB Receptors):
(§2) The functional inhibitory potency of the endothelin antagonists was assessed by their inhibition of the contraction induced by endothelin-1 on rat aortic rings (ETA receptors) and of the contraction induced by sarafotoxin S6c on rat tracheal rings (ETB receptors). Adult Wistar rats were anesthetized and exsanguinated. The thoracic aorta or trachea were excised, dissected and cut in 3–5 mm rings. The endothelium/epithelium was removed by gentle rubbing of the intimal surface. […] The rings were connected to force transducers and isometric tension was recorded (EMKA Technologies SA, Paris, France). The rings were stretched to a resting tension of 3 g (aorta) or 2 g (trachea). […] The functional inhibitory potency of the test compound was assessed by calculating the concentration ratio, i.e. the shift to the right of the EC50 induced by different concentrations of test compound. EC50 is the concentration of endothelin needed to get a half-maximal contraction, pA2 is the negative logarithm of the antagonist concentration which induces a two-fold shift in the EC50 value.

[4] = target: T4, ETB receptors (rat tracheal rings) (Rattus norvegicus, UniProt P21451); assay: Inhibition of sarafotoxin S6c-induced contraction on isolated rat tracheal rings; details: rat tracheal rings, contraction induced by sarafotoxin S6c, 10 min incubation; read-out: pA2 value ETB (converted)
T4 construct: The thoracic aorta or trachea were excised, dissected and cut in 3–5 mm rings; from tissue; host or cells: tracheal rings of adult Wistar rats, epithelium removed
T4 sequence (P21451 27-442): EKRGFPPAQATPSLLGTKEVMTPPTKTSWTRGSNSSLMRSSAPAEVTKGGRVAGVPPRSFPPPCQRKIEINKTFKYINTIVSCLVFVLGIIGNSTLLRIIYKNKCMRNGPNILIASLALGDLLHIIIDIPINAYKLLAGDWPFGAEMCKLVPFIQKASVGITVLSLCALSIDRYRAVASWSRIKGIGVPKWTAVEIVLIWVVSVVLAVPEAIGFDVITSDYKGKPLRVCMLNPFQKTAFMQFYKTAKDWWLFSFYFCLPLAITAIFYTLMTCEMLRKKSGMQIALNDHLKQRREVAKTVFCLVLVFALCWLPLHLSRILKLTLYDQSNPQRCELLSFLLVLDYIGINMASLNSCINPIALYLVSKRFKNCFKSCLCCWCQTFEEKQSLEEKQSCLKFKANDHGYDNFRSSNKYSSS
Experimental: as §1, §2

[5] = read-out: pA2 value ETA (converted)

Structure (SMILES)	IC50 [1]	IC50 [2]	Kb [3]	Kb [3, 5]	Kb [4]
Cc1ccc(-c2c(NS(=O)(=O)NCC3CC3)ncnc2OCCOc2ncc(Br)cn2)cc1 [Example 119]	4.2 nM	> 1000 nM	41.7 nM	–	–
COc1ccccc1Oc1c(NS(=O)(=O)NCc2ccccc2)nc(-c2ncccn2)nc1OCCOc1ncc(Br)cn1 [Example 37]	16 nM	–	–	14.8 nM	–
O=S(=O)(NCc1cccs1)Nc1ncnc(OCCOc2ncc(Br)cn2)c1-c1ccc(Cl)cc1 [Example 20]	4.9 nM	1720 nM	61.7 nM	–	–
COc1ccc(CNS(=O)(=O)Nc2nc(-c3ncccn3)nc(OC)c2Oc2ccccc2OC)cc1 [Example 51]	13.4 nM	306 nM	–	282 nM	–
COc1ccccc1Oc1c(NS(=O)(=O)NCc2ccccc2)nc(-c2ncccn2)nc1OCCOC(=O)Nc1ccccn1 [Example 41]	3.2 nM	41.6 nM	4.27 nM	–	–
O=S(=O)(NCc1ccccc1)Nc1ncnc(OCCOc2ncc(Br)cn2)c1-c1ccc(Br)cc1 [Example 100]	0.76 nM	–	–	3.63 nM	–
COc1ccccc1Oc1c(NS(=O)(=O)Nc2ccc(C(C)C)cc2)nc(-c2ccncc2)nc1OCCOc1ncc(Br)cn1 [Example 5, 4-i-propyl-phenyl sulfamic acid-[6-[2-(5-bromo-pyrimidin-2-yloxy)-ethoxy]-5-(o-methoxy-phenoxy)-2-(4-pyridyl)-pyrimidin-4-yl]-amide]	28 nM	1280 nM	–	224 nM	–
COc1ccccc1Oc1c(NS(=O)(=O)NCc2ccccc2)nc(SC)nc1OCCO [Example 203, benzylsulfamic acid [6-(2-hydroxy-ethoxy)-5-(2-methoxy-phenoxy)-2-methylsulfanyl-pyrimidin-4-yl]-amide]	–	–	–	20.4 nM	1450 nM
O=S(=O)(NCc1ccccc1)Nc1ncnc(OCCOc2ncc(Br)cn2)c1-c1ccc(Cl)cc1 [Example 14, benzyl sulfamic acid-[6-[2-(5-bromo-pyrimidin-2-yloxy)-ethoxy]-5-(4-chlorophenyl)-4-pyrimidinyl]-amide]	5.6 nM	–	–	3.98 nM	–
COc1ccccc1Oc1c(NS(=O)(=O)NCC2CCCCC2)nc(-c2ncccn2)nc1OCCOc1ncc(Br)cn1 [Example 133]	1.7 nM	212 nM	19.1 nM	–	–
CSc1cnc(OCCOc2ncnc(NS(=O)(=O)NCc3ccc4c(c3)OCO4)c2-c2ccc(C)cc2)nc1 [Example 147]	1.2 nM	408 nM	–	–	–
COc1ccccc1Oc1c(NS(=O)(=O)NCc2ccccc2)nc(-c2ncccn2)nc1OCCOc1ncccn1 [Example 39]	32.7 nM	524 nM	–	–	–
COc1ccc(CNS(=O)(=O)Nc2nc(-c3ncccn3)nc(OCCOc3ncc(Br)cn3)c2Oc2ccccc2OC)cc1OC [Example 166]	1 nM	3 nM	–	–	–
COc1ccccc1Oc1c(NS(=O)(=O)NCc2ccccn2)nc(-c2ncccn2)nc1OCCOc1ncc(SC)cn1 [Example 155]	5.8 nM	173 nM	–	–	–
COc1ccccc1Oc1c(NS(=O)(=O)NCc2cccs2)nc(-c2ccncc2)nc1OCCOC(=O)Nc1ccccn1 [Example 81]	3.6 nM	274 nM	–	–	–
COc1ccccc1CNS(=O)(=O)Nc1nc(-c2ncccn2)nc(OCCOc2ncccn2)c1Oc1ccccc1OC [Example 175]	22 nM	62 nM	–	–	–
COc1ccccc1Oc1c(NS(=O)(=O)NCC2CC2)nc(-c2ccncc2)nc1OCCOc1ncc(Br)cn1 [Example 123]	2.9 nM	124 nM	–	–	–
COc1cnc(OCCOc2nc(-c3ncccn3)nc(NS(=O)(=O)NCC3CCCCC3)c2Oc2ccccc2OC)nc1 [Example 134]	2.4 nM	187 nM	–	–	–

Structure (SMILES)	IC50 [1]	IC50 [2]	Kb [3]	Kb [3, 5]	Kb [4]
COc1ccccc1Oc1c(NS(=O)(=O)NCc2ccc3c(c2)OCO3)nc(-c2ccncc2)nc1OC [Example 149]	15 nM	1320 nM	–	–	–
O=S(=O)(NCC1CC1)Nc1ncnc(OCCOc2ncc(Br)cn2)c1-c1ccc(Cl)cc1 [Example 112]	0.52 nM	257 nM	–	–	–
COc1cnc(OCCOc2ncnc(NS(=O)(=O)NCc3ccccc3)c2-c2ccc(Br)cc2)nc1 [Example 101]	1.24 nM	335 nM	–	–	–
COc1ccccc1Oc1c(NS(=O)(=O)NCc2ccc(Cl)cc2)nc(-c2ncccn2)nc1OCCOc1ncc(Br)cn1 [Example 56]	6.9 nM	164 nM	–	–	–
COc1ccc(CNS(=O)(=O)Nc2nc(-c3ncccn3)nc(OCCOC(=O)Nc3ccccn3)c2Oc2ccccc2OC)cc1 [Example 50]	0.87 nM	7.5 nM	–	–	–
CCNS(=O)(=O)Nc1ncnc(OCCOc2ncc(Br)cn2)c1-c1ccc(Cl)cc1 [Example 115]	2.2 nM	> 1000 nM	–	–	–
CSc1cnc(OCCOc2nc(-c3ccncc3)nc(NS(=O)(=O)NCc3ccccc3)c2-c2ccc(C)cc2)nc1 [Example 33]	3.7 nM	609 nM	–	–	–
COc1ccccc1Oc1c(NS(=O)(=O)NCc2ccco2)nc(-c2ncccn2)nc1OCCOC(=O)Nc1cnccn1 [Example 61]	1.6 nM	200 nM	–	–	–
COc1ccc(CNS(=O)(=O)Nc2nc(-c3ccncc3)nc(OC)c2Oc2ccccc2OC)cc1 [Example 161]	6.2 nM	> 1000 nM	513 nM	–	–
COc1ccccc1Oc1c(NS(=O)(=O)NCc2ccccc2)ncnc1OCCOC(=O)Nc1ccccn1 [Example 98]	2.1 nM	159 nM	–	–	–
COc1ccccc1Oc1c(NS(=O)(=O)NCCc2ccccc2)nc(-c2ccncc2)nc1OCCOc1ncc(Br)cn1 [Example 182]	29 nM	1870 nM	–	–	–
COc1ccccc1Oc1c(NS(=O)(=O)NCc2ccccn2)nc(-c2ccncc2)nc1OCCOc1ncc(SC)cn1 [Example 158]	10 nM	80 nM	–	–	–
Cc1ccc(-c2c(NS(=O)(=O)NCc3ccccc3)nc(-c3ccncc3)nc2OCCOc2ncc(Br)cn2)cc1 [Example 32]	3.5 nM	864 nM	–	1.78 nM	–
COc1cnc(OCCOc2nc(-c3ncccn3)nc(NS(=O)(=O)NCc3ccc(F)cc3)c2Oc2ccccc2OC)nc1 [Example 143]	3.1 nM	35 nM	–	–	–
C=CCOc1nc(-c2ccncc2)nc(NS(=O)(=O)Nc2ccc(C(C)C)cc2)c1Oc1ccccc1OC [Example 2, 4-i-propyl-phenyl sulfamic acid-[6-allyloxy-5-(o-methoxyphenoxy)-2-(4-pyridyl)-pyrimidin-4-yl]-amide]	2190 nM	8740 nM	–	–	–
COc1ccc(CNS(=O)(=O)Nc2nc(-c3ncccn3)nc(OCCOc3ncccn3)c2Oc2ccccc2OC)cc1OC [Example 167]	5.2 nM	6.4 nM	–	–	–
COc1ccccc1Oc1c(NS(=O)(=O)NCc2ccccc2)nc(-c2ccnc(-c3nnn[nH]3)c2)nc1OCCO [Example 208, Benzylsulfamic acid [6-(2-hydroxy-ethoxy)-5-(2-methoxy-phenoxy)-2-[2-(1H-tetrazol-5-yl)-pyridin-4-yl]-pyrimidin-4-yl]-amide]	17 nM	342 nM	–	–	–
CCCCNS(=O)(=O)Nc1ncnc(OCCOc2ncc(SC)cn2)c1-c1ccc(Cl)cc1 [Example 118]	0.34 nM	611 nM	–	–	–
